We go through seven compounds from ChEMBL document CHEMBL5360590, “Phyllospongianes A-E, Dinorscalarane Sesterterpenes from the Marine Sponge Phyllospongia foliascens” (J Nat Prod, 2023).

Each structure is given as a SMILES string. In brackets after ≈: the same amount, converted by molar mass.

The test system of one assay is Vibrio parahaemolyticus. Kind of assay: Antibacterial activity against Vibrio parahaemolyticus assessed as bacterial growth inhibition. The format is functional.
In a further assay the test system is HepG2. Kind of assay: Cytotoxicity against human HepG2 cells assessed as reduction in cell viability by CCK-8 assay. The format is functional, cell-based. (Formazan colour is commonly taken as a measure of viable cells.)
The nature of assay [1]: Cytotoxicity against human Enzalutamide-resistant LNCaP C4-2 cells assessed as reduction in cell viability by CCK-8 assay. The class given is functional, cell-based.
The subject of the next assay is MDA-MB-231. The assay is described as follows: Cytotoxicity against human MDA-MB-231 cells assessed as reduction in cell viability by CCK-8 assay. The format is functional, cell-based.
For another assay, the system named is Bacillus subtilis. Kind of assay: Antibacterial activity against Bacillus subtilis assessed as bacterial growth inhibition. The class given is functional.
A further assay relates to NCI-H460. Kind of assay: Cytotoxicity against human NCI-H460 cells assessed as reduction in cell viability by CCK-8 assay. The format is functional, cell-based.
For another assay, the system named is Escherichia coli. Kind of assay: Antibacterial activity against Escherichia coli assessed as bacterial growth inhibition. The class given is functional.
The next assay deals with MCF7. Kind of assay: Cytotoxicity against human MCF7 cells assessed as reduction in cell viability by CCK-8 assay. The format is functional, cell-based.
The test system of the next assay is HT-29. The assay is described as follows: Cytotoxicity against human HT-29 cells assessed as reduction in cell viability by CCK-8 assay. The class given is functional, cell-based.
The next assay concerns Vibrio vulnificus. The assay is described as follows: Antibacterial activity against Vibrio vulnificus assessed as bacterial growth inhibition. The format is functional.
The next assay concerns Enterococcus faecalis. The assay is described as follows: Antibacterial activity against Enterococcus faecalis assessed as bacterial growth inhibition. The class given is functional.
The next assay concerns Pseudomonas aeruginosa. Kind of assay: Antibacterial activity against Pseudomonas aeruginosa assessed as bacterial growth inhibition. The format is functional.

For the compound `CC[C@@]1(C)CCC[C@]2(C)[C@H]3C[C@H](OC(=O)C[C@H](O)C(C)C)[C@]4(C)C(C=O)=CC[C@H]4[C@]3(C)CC[C@@H]12`, the MIC (in general, the lowest concentration that inhibits growth of the organism) is more than 64 µg/mL in the assay on Vibrio parahaemolyticus; 8 µg/mL (≈ 16.9 µM) with Bacillus subtilis; more than 64 µg/mL with Escherichia coli; more than 64 µg/mL with Vibrio vulnificus; more than 64 µg/mL with Enterococcus faecalis; more than 64 µg/mL in the assay on Pseudomonas aeruginosa. The IC50 (usually the concentration at which inhibition is half-maximal) in the assay with HepG2 came to 9.6 µM; in [1] it was 0.7 µM; in the assay on MDA-MB-231, 13.2 µM; in the assay on NCI-H460 it was 2 µM; in the assay on MCF7 it was 1.1 µM; in the assay with HT-29, 1.2 µM.

For the compound `CC[C@@]1(C)CCC[C@]2(C)[C@H]3C[C@H](OC(=O)CCC(C)C)[C@]4(C)C(C=O)=CC[C@H]4[C@]3(C)CC[C@@H]12`, the MIC worked out at 2 µg/mL (≈ 4.38 µM) with Vibrio parahaemolyticus; 1 µg/mL (≈ 2.19 µM) in the assay with Bacillus subtilis; 8 µg/mL (≈ 17.5 µM) with Escherichia coli; 2 µg/mL (≈ 4.38 µM) with Vibrio vulnificus; 4 µg/mL (≈ 8.76 µM) with Enterococcus faecalis; 4 µg/mL (≈ 8.76 µM) with Pseudomonas aeruginosa. The IC50 amounted to 19.3 µM in the assay on HepG2; 1.7 µM in assay [1]; 32.3 µM with MDA-MB-231; 7.2 µM in the assay with NCI-H460; 3.5 µM in the assay with MCF7; 4.7 µM with HT-29.

Turning to `CCCCC(=O)O[C@H]1C[C@@H]2[C@@]3(C)CCC[C@](C)(CC)[C@@H]3CC[C@@]2(C)[C@@H]2CC=C(C(=O)O)[C@@]12C`, the MIC was found to be 16 µg/mL (≈ 34.9 µM) in the assay on Vibrio parahaemolyticus; 16 µg/mL (≈ 34.9 µM) in the assay on Bacillus subtilis; 32 µg/mL (≈ 69.8 µM) in the assay on Escherichia coli; 64 µg/mL (≈ 140 µM) with Vibrio vulnificus; 16 µg/mL (≈ 34.9 µM) with Enterococcus faecalis; 32 µg/mL (≈ 69.8 µM) in the assay on Pseudomonas aeruginosa. Further, the concentration for half-maximal inhibition (IC50) is more than 50 µM with HepG2; 11.2 µM in assay [1]; more than 50 µM in the assay on MDA-MB-231; 13 µM in the assay with NCI-H460; 15.3 µM in the assay with MCF7; 18 µM in the assay with HT-29.

As to `CC[C@@]1(C)CCC[C@]2(C)[C@H]3C[C@H](OC(=O)CCC(C)C)[C@]4(C)C(C(=O)O)=CC[C@H]4[C@]3(C)CC[C@@H]12`, the MIC in the assay on Vibrio parahaemolyticus was 2 µg/mL (≈ 4.23 µM); in the assay on Bacillus subtilis, 2 µg/mL (≈ 4.23 µM); in the assay with Escherichia coli, 8 µg/mL (≈ 16.9 µM); in the assay on Vibrio vulnificus it was 4 µg/mL (≈ 8.46 µM); with Enterococcus faecalis it was 4 µg/mL (≈ 8.46 µM); with Pseudomonas aeruginosa, 4 µg/mL (≈ 8.46 µM). Besides, the IC50 in the assay on HepG2 was 20.1 µM; in assay [1], 3.7 µM; in the assay on MDA-MB-231, more than 50 µM; with NCI-H460, 11 µM; in the assay on MCF7, 12.3 µM; in the assay with HT-29, 13.2 µM.

`CCCCC(=O)O[C@H]1C[C@@H]2[C@@]3(C)CCC[C@](C)(CC)[C@@H]3CC[C@@]2(C)[C@@H]2CC=C(C=O)[C@@]12C`: the minimal inhibitory concentration (MIC) is 4 µg/mL (≈ 9.04 µM) in the assay with Vibrio parahaemolyticus; 2 µg/mL (≈ 4.52 µM) with Bacillus subtilis; 8 µg/mL (≈ 18.1 µM) in the assay with Escherichia coli; 4 µg/mL (≈ 9.04 µM) in the assay with Vibrio vulnificus; 4 µg/mL (≈ 9.04 µM) with Enterococcus faecalis; 4 µg/mL (≈ 9.04 µM) with Pseudomonas aeruginosa. For the same compound, the half-maximal inhibitory concentration (IC50) with HepG2 was 32.1 µM; in assay [1], 5.7 µM; with MDA-MB-231 it was more than 50 µM; with NCI-H460, 10.2 µM; in the assay on MCF7, 7.3 µM; in the assay with HT-29, 8.7 µM.

`C[C@H]1COc2c(N3CCN(C)CC3)c(F)cc3c(=O)c(C(=O)O)cn1c23` [LEVOFLOXACIN ANHYDROUS]: the minimum inhibitory concentration (MIC) with Vibrio parahaemolyticus turned out to be 0.5 µg/mL (≈ 1.38 µM); in the assay on Bacillus subtilis, 0.25 µg/mL (≈ 0.692 µM); with Escherichia coli it was 0.25 µg/mL (≈ 0.692 µM); in the assay on Vibrio vulnificus it was 0.5 µg/mL (≈ 1.38 µM); in the assay with Enterococcus faecalis it was 0.25 µg/mL (≈ 0.692 µM); in the assay with Pseudomonas aeruginosa, 0.25 µg/mL (≈ 0.692 µM).

With `Cn1nnc2c(C(N)=O)ncn2c1=O` [TEMOZOLOMIDE], the IC50 in the assay with HepG2 stood at 5.9 µM; in assay [1], 18.2 µM; with MDA-MB-231, 14.4 µM.
